55 compounds from article PMC9367601 (Cancers, 2022) can be followed below.

This assay has as its target T1, Epidermal Growth Factor Receptor (EGFR), extracellular domain (EGFR-ECD) (Homo sapiens, UniProt P00533).
T1 construct: full-length EGFR in DiscoverX PathHunter enzyme-complementation cells, EGF-stimulated
Nature of the assay: cell-based. Further details: DiscoverX PathHunter EGFR dimerization/activation assay, chemiluminescence. The procedure: The inhibition of the EGFR dimerization assay was conducted using the PathHunter kit following the producer instructions and with cetuximab as a positive control. For IC50 determination, the selected compounds were tested at different concentration (range 0.1–100 µM) and the IC50 values were calculated by the four parameters logistic (4-PL) model. Evaluation was based on means from at least four independent experiments. The discovery of orally available small molecules able to impair the EGFR activation targeting the extracellular domain could be of great interest for cancer treatment. To pursue this goal, a suitable high/medium throughput screening method is required. In this respect, a commercially available kit (PathHunter® from DiscoverX©; San Francisco, CA, USA) for the screening of compounds able to prevent EGFR activation (either dimerization or autophosphorylation) has been developed in recent years. This assay measures the chemiluminescent signal produced as a consequence of ligand-induced dimerization/activation of EGFR [16]. Our interest in kinase inhibitors and the readily availability of such kit prompted us to start a campaign for the discovery of small molecules targeting the extracellular domain of EGFR.

T1 sequence (P00533 25-1210): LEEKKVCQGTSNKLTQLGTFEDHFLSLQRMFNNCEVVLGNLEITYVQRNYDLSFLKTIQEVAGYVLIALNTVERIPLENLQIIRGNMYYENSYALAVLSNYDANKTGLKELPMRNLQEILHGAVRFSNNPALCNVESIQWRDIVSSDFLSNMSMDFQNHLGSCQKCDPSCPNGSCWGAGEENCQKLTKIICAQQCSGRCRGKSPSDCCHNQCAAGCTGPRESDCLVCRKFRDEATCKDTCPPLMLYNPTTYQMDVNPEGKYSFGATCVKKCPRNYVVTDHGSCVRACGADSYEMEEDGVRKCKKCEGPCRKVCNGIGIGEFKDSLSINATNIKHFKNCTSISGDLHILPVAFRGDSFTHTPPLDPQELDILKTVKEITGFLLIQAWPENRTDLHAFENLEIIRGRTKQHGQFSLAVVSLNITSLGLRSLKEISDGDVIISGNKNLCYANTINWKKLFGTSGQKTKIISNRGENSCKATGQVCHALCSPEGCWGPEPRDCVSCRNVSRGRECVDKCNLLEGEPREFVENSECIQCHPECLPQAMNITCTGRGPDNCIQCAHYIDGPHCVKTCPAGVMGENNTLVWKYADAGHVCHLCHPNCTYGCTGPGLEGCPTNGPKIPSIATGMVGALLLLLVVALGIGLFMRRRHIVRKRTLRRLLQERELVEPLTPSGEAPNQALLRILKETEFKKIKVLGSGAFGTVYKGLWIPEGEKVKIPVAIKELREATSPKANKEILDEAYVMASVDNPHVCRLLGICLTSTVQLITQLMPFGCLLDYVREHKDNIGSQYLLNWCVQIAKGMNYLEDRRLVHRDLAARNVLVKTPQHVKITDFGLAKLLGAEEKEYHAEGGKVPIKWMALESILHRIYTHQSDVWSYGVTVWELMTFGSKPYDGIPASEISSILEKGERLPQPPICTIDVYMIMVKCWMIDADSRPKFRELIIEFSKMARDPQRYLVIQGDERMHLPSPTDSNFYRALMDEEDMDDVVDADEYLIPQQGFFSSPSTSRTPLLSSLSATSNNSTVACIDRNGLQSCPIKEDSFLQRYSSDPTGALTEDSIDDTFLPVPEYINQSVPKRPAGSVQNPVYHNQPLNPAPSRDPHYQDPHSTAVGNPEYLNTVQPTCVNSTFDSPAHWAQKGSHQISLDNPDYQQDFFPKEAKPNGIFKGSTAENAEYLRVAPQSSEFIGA

In the case of `O=C(O)c1ccc(-c2cc(-c3cccc(C(F)(F)F)c3)nc(O)n2)cc1` [DSF024], 10 µM produced 16 ± 1% inhibition and testing at 50 µM gave an inhibition of 5 ± 3%.

Regarding `O=C(O)c1ccc(-c2cc(-c3cccc(C(F)(F)F)c3)ncn2)cc1` [DSF025], at 10 µM the inhibition was 6 ± 5% and the inhibition at 50 µM came to 34 ± 1%.

In turn, `FC(F)(F)c1cccc(-c2cc(-c3ccccc3)ncn2)c1` [DSF026] registered an inhibition at 10 µM of 0% and an inhibition at 50 µM of 0%.

`c1ccc(-c2cccc(-c3cc(-c4ccccc4)ncn3)c2)cc1` [DSF027]: testing at 10 µM gave an inhibition of 0% and the inhibition at 50 µM amounted to 0%.

In turn, `Brc1cccc(-c2cc(-c3ccccc3)ncn2)c1` [DSF028] yielded an inhibition at 10 µM of 0% and an inhibition at 50 µM of 0%.

`O=C(O)c1ccc(-c2ccc(-c3ccccc3)cc2O)cc1` [DSF029] came in with an inhibition at 10 µM of 1 ± 4% and an inhibition at 50 µM of 0%.

The compound `O=C(NCc1ccccc1)c1ccc(-c2ccc(-c3ccccc3)cc2O)cc1` [DSF030] came in with an inhibition at 10 µM of 0% and an inhibition at 50 µM of 0%.

With `COc1cccc(Nc2ccc3cc(-c4cccs4)c(=O)oc3n2)c1` [DSF031], the inhibition at 10 µM came to 0% and 50 µM produced 19 ± 1% inhibition.

The compound `CSc1cccc(Nc2ccc3cc(-c4cccs4)c(=O)oc3n2)c1` [DSF032] gave an inhibition at 10 µM of 0% and an inhibition at 50 µM of 3 ± 5%.

Turning to `COc1cccc(Nc2nc(N(C)C)c3cc(-c4c(Cl)cccc4Cl)c(=O)oc3n2)c1` [DSF033], the inhibition at 10 µM was determined as 0% and 50 µM produced 12 ± 3% inhibition.

Compound `COc1cccc(Nc2nc(O)c3cc(-c4c(Cl)cccc4Cl)c(=O)oc3n2)c1` [DSF034] returned an inhibition at 10 µM of 14 ± 2% and an inhibition at 50 µM of 0%.

In turn, `COc1cccc(Nc2nc(O)c3cc(-c4cc(OC)cc(OC)c4)c(=O)oc3n2)c1` [DSF035] gave an inhibition at 10 µM of 0% and an inhibition at 50 µM of 0%.

Compound `COc1cccc(Nc2nc(O)c3cc(-c4ccccc4)c(=O)oc3n2)c1` [DSF036] gave an inhibition at 10 µM of 0% and an inhibition at 50 µM of 0%.

In turn, `O=c1oc2ncnc(Nc3cccc(-c4ccccc4)c3)c2cc1-c1c(Cl)cccc1Cl` [DSF037] had an inhibition at 10 µM of 12 ± 4% and an inhibition at 50 µM of 40 ± 5%.

`Cc1cccc(Nc2ncnc3oc(=O)c(-c4c(Cl)cccc4Cl)cc23)c1` [DSF038] showed an inhibition at 10 µM of 0% and an inhibition at 50 µM of 24 ± 5%.

`CN1CCN(c2ncnc3oc(=O)c(-c4c(Cl)cccc4Cl)cc23)CC1` [DSF039] returned an inhibition at 10 µM of 0% and an inhibition at 50 µM of 10 ± 2%.

`CCOC(=O)c1cc2cnc(O)nc2oc1=O` [DSF040]: the inhibition at 10 µM is 0% and at 50 µM the inhibition was 0%.

`O=c1oc2nc(Nc3cccc(-c4ccccc4)c3)nc(O)c2cc1-c1cccc(Br)c1` [DSF041] showed an inhibition at 10 µM of 0% and an inhibition at 50 µM of 0%.

`COC(=O)Cc1c(C)c2ccc(O)cc2oc1=O` [DSF042] had an inhibition at 10 µM of 0% and an inhibition at 50 µM of 0%.

The compound `COc1ccc2c(C)c(CC(=O)Nc3ccc(C(=O)O)cc3)c(=O)oc2c1` [DSF043] registered an inhibition at 10 µM of 0% and an inhibition at 50 µM of 0%.

`COc1ccc2c(C)c(CCC(=O)Nc3ccc(C(=O)O)cc3)c(=O)oc2c1C` [DSF044] yielded an inhibition at 10 µM of 0% and an inhibition at 50 µM of 0%.

`COc1ccc2c(C)c(CCC(=O)Nc3ccc(C(=O)O)cc3)c(=O)oc2c1` [DSF045] displayed an inhibition at 10 µM of 0% and an inhibition at 50 µM of 0%.

For `COCCOc1ccc2c(C)c(CC(=O)Nc3ccc(C(=O)O)cc3)c(=O)oc2c1` [DSF046], 10 µM produced 0% inhibition and the inhibition at 50 µM was 0%.

`COc1ccc2c(C)c(CC(=O)Nc3cccc(C(=O)O)c3)c(=O)oc2c1C` [DSF047] came in with an inhibition at 10 µM of 0% and an inhibition at 50 µM of 0%.

Compound `COCCOc1ccc2c(C)c(CCC(=O)Nc3ccc(C(=O)O)cc3)c(=O)oc2c1` [DSF048] displayed an inhibition at 10 µM of 9 ± 3% and an inhibition at 50 µM of 3 ± 4%.

In the case of `Cc1c(CCC(=O)Nc2cccc(C(=O)O)c2)c(=O)oc2nc3oc4c(c3cc12)CCCC4` [DSF049], testing at 10 µM gave an inhibition of 35 ± 2% and 50 µM produced 36 ± 3% inhibition.

The compound `Cc1c(CC(=O)Nc2cccc(O)c2)c(=O)oc2c(C)c3oc4c(c3cc12)CCCC4` [DSF050] showed an inhibition at 10 µM of 24 ± 4% and an inhibition at 50 µM of 32 ± 2%.

The compound `Cc1c(CC(=O)Nc2ccc(NS(C)(=O)=O)cc2)c(=O)oc2c(C)c3oc4c(c3cc12)CCCC4` [DSF051] yielded an inhibition at 10 µM of 40 ± 1% and an inhibition at 50 µM of 50 ± 1%.

As to `CC(=O)Nc1ccc(NC(=O)Cc2c(C)c3cc4c5c(oc4c(C)c3oc2=O)CCCC5)cc1` [DSF052], the inhibition at 10 µM is 41 ± 4% and 50 µM produced 49 ± 2% inhibition.

Take `Cc1c(CC(=O)Nc2ccc(C(N)=O)cc2)c(=O)oc2c(C)c3oc4c(c3cc12)CCCC4` [DSF053]: the inhibition at 10 µM amounted to 39 ± 5% and the inhibition at 50 µM came out at 43 ± 1%.

On to `Cc1c(C)c2cc3c4c(oc3c(O)c2oc1=O)CCCC4` [DSF054], for which testing at 10 µM gave an inhibition of 8 ± 4% and at 50 µM the inhibition was 46 ± 4%.

In turn, `Cc1oc2c(C)c3oc(=O)c(CC(=O)NCc4ccccc4Cl)c(C)c3cc2c1C` [DSF055] yielded an inhibition at 10 µM of 46 ± 1% and an inhibition at 50 µM of 46 ± 5%.

`Cc1ccc(NC(=O)Nc2ccc(Nc3cc(-c4ccccc4)ncn3)cc2)cc1` [DSF056] had an inhibition at 10 µM of 0% and an inhibition at 50 µM of 22 ± 5%.

In the case of `O=C(Nc1ccc(Nc2cc(-c3ccccc3)ncn2)cc1)Nc1ccc(C(=O)O)cc1` [DSF057], the inhibition at 10 µM stood at 17 ± 2% and testing at 50 µM gave an inhibition of 44 ± 5%.

The compound `COc1cccc(Nc2ncc(C(=O)O)c(O)n2)c1` [DSF058] had an inhibition at 10 µM of 12 ± 2% and an inhibition at 50 µM of 5 ± 5%.

The compound `Cc1ccc([N+](=O)[O-])cc1Nc1nccc(-c2cccnc2)n1` [DSF059] returned an inhibition at 10 µM of 0% and an inhibition at 50 µM of 0%.

`Cc1nc(Cl)cc(Nc2ncc(C(=O)O)s2)n1` [DSF060] gave an inhibition at 10 µM of 0% and an inhibition at 50 µM of 0%.

For the compound `O=C(NC(=O)c1ccccc1)Nc1cccc(Oc2ncc(Cl)cn2)c1` [DSF061], 10 µM produced 20 ± 4% inhibition and the inhibition at 50 µM turned out to be 1 ± 1%.

For `O=C(NC(=S)Nc1cccc(Oc2ncc(Cl)cn2)c1)c1ccccc1` [DSF062], the inhibition at 10 µM came out at 9 ± 3% and testing at 50 µM gave an inhibition of 21 ± 2%.

In the case of `O=C(NC(=O)c1ccccc1[N+](=O)[O-])Nc1cccc(Oc2ncc(Cl)cn2)c1` [DSF063], the inhibition at 10 µM turned out to be 0% and testing at 50 µM gave an inhibition of 5 ± 5%.

For `CCc1cnc(Oc2cccc(NC(=O)NC(=O)c3ccccc3)c2)nc1` [DSF064], the inhibition at 10 µM was found to be 0% and the inhibition at 50 µM worked out at 0%.

Turning to `CCc1cnc(Oc2cccc(NC(=S)NC(=O)c3ccccc3)c2)nc1` [DSF065], the inhibition at 10 µM turned out to be 0% and testing at 50 µM gave an inhibition of 22 ± 5%.

Consider `CCc1cnc(Oc2cccc(NC(=O)NC(=O)c3ccccc3[N+](=O)[O-])c2)nc1` [DSF066], for which testing at 10 µM gave an inhibition of 0% and at 50 µM the inhibition was 0%.

`O=C(O)Cc1ccc(/N=C2/C(=O)Nc3ccccc32)cc1` [DSF067] had an inhibition at 10 µM of 42 ± 5% and an inhibition at 50 µM of 42 ± 1%.

`O=C(O)Cc1ccc(/N=C2/C(=O)Nc3ccc(Br)cc32)cc1` [DSF068] yielded an inhibition at 10 µM of 37 ± 5% and an inhibition at 50 µM of 56 ± 4%.

Compound `O=C1Nc2ccccc2/C1=N\c1cccc(C(F)(F)F)c1` [DSF069] returned an inhibition at 10 µM of 27 ± 5% and an inhibition at 50 µM of 56 ± 2%.

In turn, `COc1ccc(OC)c(/N=C2/C(=O)Nc3ccc(Br)cc32)c1` [DSF070] returned an inhibition at 10 µM of 20 ± 5% and an inhibition at 50 µM of 41 ± 1%.

The compound `CC(=O)Nc1ccc(/C=C2/N=C(c3cccc(C(=O)O)c3)OC2=O)cc1` [DSF071] showed an inhibition at 10 µM of 0% and an inhibition at 50 µM of 0%.

`COc1cc(/C=C2/N=C(c3ccccc3)OC2=O)ccc1OC(C)=O` [DSF072] displayed an inhibition at 10 µM of 16 ± 4% and an inhibition at 50 µM of 39 ± 2%.

The compound `CN(C)c1ccc(/C=C2/N=C(c3ccccc3)OC2=O)cc1` [DSF073] came in with an inhibition at 10 µM of 23 ± 1% and an inhibition at 50 µM of 36 ± 3%.

`O=C1OC(c2ccccc2)=N/C1=C/c1cnc2ccccc2c1` [DSF074] gave an inhibition at 10 µM of 10 ± 3% and an inhibition at 50 µM of 48 ± 2%.

The compound `O=C1OC(c2ccccc2)=N/C1=C/c1ccc[nH]1` [DSF075] returned an inhibition at 10 µM of 18 ± 5% and an inhibition at 50 µM of 34 ± 4%.

With `COc1ccc(/C=C2/N=C(c3ccccc3)OC2=O)cc1` [DSF076], the inhibition at 10 µM was 25 ± 2% and 50 µM produced 18 ± 4% inhibition.

`CC(=O)n1cc(/C=C2/N=C(c3ccccc3)OC2=O)c2ccccc21` [DSF077] yielded an inhibition at 10 µM of 7 ± 1% and an inhibition at 50 µM of 39 ± 1%.

For `CC(=O)Nc1ccc(/C=C2/N=C(c3cccnc3Cl)OC2=O)cc1` [DSF078], at 10 µM the inhibition was 7 ± 1% and 50 µM produced 37 ± 4% inhibition.

One may read the inhibition as the change of the read-out against control, counted positive when it falls. Lower therefore signals a weak effect.
